In this assay the test system is β-catenin-TCF-mediated reporter transcription activity in Colo 205 cells. The assay is described as follows: Colo 205 reporter assay (TCF/LEF luciferase). Format: cell-based. To be noted: Colo 205 TCF/LEF luciferase reporter, read-out: TCF reporter Colo205 IC50. An excerpt:
The compounds of the invention described herein were screened using the assay procedure for β-catenin-TCF-mediated reporter transcription activity described below.
Reporter cell lines were generated by stably transfecting cells of cancer cell lines (e.g., colon cancer) with a plasmid reporter construct (From SABiosciences, a QIAGEN company) that includes TCF/LEF promoter driving expression of the firefly luciferase gene. TCF/LEF reporter constructs were made in which TCF/LEF promoter, a promoter with optimal number of TCF/LEF binding sites designed by SABiosceinces, was linked upstream of the firefly luciferase gene. This construct could also include a puromycin resistance gene as a selectable marker. This construct could also be used to stably transfect Colo 205 cells, a colon cancer cell line having a mutated APC gene that causes a constitutively active β-catenin. A control cell line was generated using another plasmid construct containing the luciferase gene under the control of a CMV basal promoter which is not activated by p-catenin.
Colo 205 Cultured cells with a stably transfected reporter construct were plated at approximately 10,000 cells per well into 384 well multi-well plates for twenty four hours. The testing compounds were then added to the wells in 2-fold serial dilutions using a twenty micromolar top concentration. A series of control wells for each cell type received only compound solvent. Five hours after the addition of compound, reporter activity for luciferase was assayed, by addition of the SteadyGlo luminescence reagent (Promega). The reporter luminescence activity was measured using Pherastar plate reader (BMG Labtech). Readings were normalized to DMSO only treated cells, and normalized activities were then used in the IC50 calculations. The Colo 205 reporter assay data are summarized in Table 45: A<0.3 μM; 0.3 μM≤B<1.0 μM; 1.0 μM≤C<5.0 μM; D≥5.0 μM
Colo 205 reporter assay data has also been obtained for certain R-isomers of Formula (I) wherein R^4 is —H or -D, and wherein the carbon to which R^3 and R^4 are attached (C2 carbon of Formula (X)) has R stereochemistry; such epimeric compounds are represented using the suffix “B” attached to the Compound described herein having the S stereochemistry at the carbon to which R^3 and R^4 are attached: […]
A general note: In a reporter assay the amount or activity of a reporter protein is the signal.

[1] abbreviates: Homo sapiens, COLO 205, 5 h, five hours after addition of compound.

Where two headings read alike, the source gives them in different places.

Broadly, the IC50 is the concentration at which inhibition is half-maximal.

`Cc1nc(N[C@H]2C[C@@H](N(C)c3cnc(C(F)(F)F)cn3)C2)nc2c1NC(=O)[C@H](C)N2C` [Compound 653, (S)-4,7,8-trimethyl-2-((cis-3-(methyl(5-(trifluoromethyl)pyrazin-2-yl)amino)cyclobutyl)amino)-7,8-dihydropteridin-6(5H)-one]: under setting [1], the half-maximal inhibitory concentration (IC50) was at least 5 µM. Regarding `COC1(C2C(=O)Nc3c(C)nc(NC4CN(C(=O)c5cc(F)c(F)c(F)c5)C4)nc3N2C)CCC1` (stereo not shown) [Compound 675, 7-(1-methoxycyclobutyl)-4,8-dimethyl-2-((1-(3,4,5-trifluorobenzoyl)azetidin-3-yl)amino)-7,8-dihydropteridin-6(5H)-one], under setting [1], the half-maximal inhibitory concentration (IC50) fell in the range of 0.3 to 1 µM. For the compound `Cc1nc(N[C@@H]2CC[C@H](Nc3cnc(C(F)(F)F)cn3)C2)nc2c1NC(=O)[C@H](C(C)C)N2C` [Compound 735, (S)-7-isopropyl-4,8-dimethyl-2-(((1R,3S)-3-((5-(trifluoromethyl)pyrazin-2-yl)amino)cyclopentyl)amino)-7,8-dihydropteridin-6(5H)-one], the half-inhibitory concentration (IC50) under setting [1] is under 0.3 µM. Same read-out and setting: in the case of `CO[C@H](C)[C@H]1C(=O)Nc2c(C)nc(N[C@H]3C[C@H](Oc4cnc(C(F)(F)F)nc4)C3)nc2N1C` [Compound 657, (S)-7-((R)—1-methoxyethyl)-4,8-dimethyl-2-((trans-3-((2-(trifluoromethyl)pyrimidin-5-yl)oxy)cyclobutyl)amino)-7,8-dihydropteridin-6(5H)-one] it was under 0.3 µM. The same measure, in the same setting: then `Cc1nc(N[C@H]2C[C@H](Nc3cnc(C(F)(F)F)cn3)C2)nc2c1NC(=O)[C@H](C(C)C)N2C` [Compound 558, (S)-7-isopropyl-4,8-dimethyl-2-((trans-3-((5-(trifluoromethyl)pyrazin-2-yl)amino)cyclobutyl)amino)-7,8-dihydropteridin-6(5H)-one], with 1 to 5 µM; and `Cc1nc(N[C@H]2C[C@H](Oc3ccc(OC(F)(F)F)cc3)C2)nc2c1NC(=O)[C@H](C)N2C` [Compound 326, (7S)-4,7,8-trimethyl-2-((trans-3-(4-(trifluoromethoxy)phenoxy)-cyclobutyl)amino)-7,8-dihydropteridin-6(5H)-one], with under 0.3 µM; and `CCn1ccnc1Cn1cc(CNc2nc(C)c3c(n2)N(C)[C@@H](C)C(=O)N3)cn1` [Compound 191, (7S)-2-(((1-((1-ethyl-1H-imidazol-2-yl)methyl)-1H-pyrazol-4-yl)methyl)amino)-4,7,8-trimethyl-7,8-dihydropteridin-6(5H)-one], with 1 to 5 µM. Turning to `Cc1nc(NC2CN(C(=O)c3cnon3)C2)nc2c1NC(=O)[C@H](C(C)C)N2C` [Compound 617, (S)-2-((1-(1,2,5-oxadiazole-3-carbonyl)azetidin-3-yl)amino)-7-isopropyl-4,8-dimethyl-7,8-dihydropteridin-6(5H)-one], the IC50 under setting [1] is at least 5 µM. Regarding `Cc1nc(N[C@H]2C[C@@H](Nc3cc(C(F)(F)F)ncn3)C2)nc2c1NC(=O)[C@H](C)N2C` [Compound 552, (S)-4,7,8-trimethyl-2-((cis-3-((6-(trifluoromethyl)pyrimidin-4-yl)amino)cyclobutyl)amino)-7,8-dihydropteridin-6(5H)-one], the concentration for half-maximal inhibition (IC50) under setting [1] was at least 5 µM. As to `Cc1nc(N[C@H]2CCN(Cc3ccccc3)C2)nc2c1NC(=O)[C@H](C)N2C` [Compound 371, (7S)-2-(((S)-1-benzylpyrrolidin-3-yl)amino)-4,7,8-trimethyl-7,8-dihydropteridin-6(5H)-one], under setting [1], the IC50 was at least 5 µM. Same read-out and setting: in the case of `Cc1nc(NC2CN(C(=O)c3ccc(OC(F)(F)F)nc3)C2)nc2c1NC(=O)[C@H](C(C)C)N2C` [Compound 607, (S)-7-isopropyl-4,8-dimethyl-2-((1-(6-(trifluoromethoxy)nicotinoyl)azetidin-3-yl)amino)-7,8-dihydropteridin-6(5H)-one] it was under 0.3 µM; in that of `Cc1nc(NCc2cnn(C3CCN(c4cc(F)cc(F)c4)CC3)c2)nc2c1NC(=O)[C@H](C)N2C` [Compound 179, (7S)-2-(((1-(1-(3,5-difluorophenyl)piperidin-4-yl)-1H-pyrazol-4-yl)methyl)amino)-4,7,8-trimethyl-7,8-dihydropteridin-6(5H)-one], under 0.3 µM. The same measure, in the same setting: in the case of `Cc1nc(NCc2cnn(Cc3cccnc3)c2)nc2c1NC(=O)[C@H](C)N2C` [Compound 198, (7S)-4,7,8-trimethyl-2-(((1-(pyridin-3-ylmethyl)-1H-pyrazol-4-yl)methyl)amino)-7,8-dihydropteridin-6(5H)-one] it was 1 to 5 µM; in that of `Cc1nc(N[C@H]2C[C@H](Oc3ccc(OCC(F)(F)F)nc3)C2)nc2c1NC(=O)[C@H](C)N2C` [Compound 347, (7S)-4,7,8-trimethyl-2-((trans-3-((6-(2,2,2-trifluoroethoxy)pyridin-3-yl)oxy)cyclobutyl)amino)-7,8-dihydropteridin-6(5H)-one], under 0.3 µM; in that of `Cc1nc(NCc2cnn(C3CCC(c4ccc(F)cc4)C3)c2)nc2c1NC(=O)[C@H](C)N2C` (stereo partly drawn) [Compound 137, (7S)-2-(((1-(3-(4-fluorophenyl)cyclopentyl)-1H-pyrazol-4-yl)methyl)amino)-4,7,8-trimethyl-7,8-dihydropteridin-6(5H)-one], under 0.3 µM. Same read-out and setting: in the case of `Cc1nc(N[C@H]2C[C@@H](Cn3nccc3C(F)(F)F)C2)nc2c1NC(=O)[C@H](C(C)C)N2C` [Compound 512, (S)-7-isopropyl-4,8-dimethyl-2-((cis-3-((5-(trifluoromethyl)-1H-pyrazol-1-yl)methyl)cyclobutyl)amino)-7,8-dihydropteridin-6(5H)-one] it was under 0.3 µM. For `COCC1(C)C(=O)Nc2c(C)nc(N[C@H]3C[C@H](Oc4cnc(C(F)(F)F)nc4)C3)nc2N1C` (relative stereo) [Compound 710, 7-(methoxymethyl)-4,7,8-trimethyl-2-((trans-3-((2-(trifluoromethyl)pyrimidin-5-yl)oxy)cyclobutyl)amino)-7,8-dihydropteridin-6(5H)-one], the half-maximal inhibitory concentration (IC50) (five hours after addition of compound) fell in the range of 1 to 5 µM.

With `Cc1nc(N[C@H]2C[C@@H](Cn3ccc(C(F)(F)F)n3)C2)nc2c1NC(=O)[C@H](C(C)C)N2C` [Compound 690, (S)-7-isopropyl-4,8-dimethyl-2-((cis-3-((3-(trifluoromethyl)-1H-pyrazol-1-yl)methyl)cyclobutyl)amino)-7,8-dihydropteridin-6(5H)-one], the 50% inhibitory concentration (IC50) under setting [1] was under 0.3 µM. For `Cc1nc(N[C@H]2C[C@H](NC(=O)Nc3cc(F)c(F)cc3F)C2)nc2c1NC(=O)[C@H](C)N2C` [Compound 478, 1-(2,4,5-trifluorophenyl)-3-(trans-3-(((S)-4,7,8-trimethyl-6-oxo-5,6,7,8-tetrahydropteridin-2-yl)amino)cyclobutyl)urea], the IC50 under setting [1] lay within 1 to 5 µM. As to `C[C@H]1C(=O)Nc2cnc(NCc3cnn(Cc4ccc(C(F)(F)F)cc4)c3)nc2N1C` [Compound 147, (7S)-7,8-dimethyl-2-(((1-(4-(trifluoromethyl)benzyl)-1H-pyrazol-4-yl)methyl)amino)-7,8-dihydropteridin-6(5H)-one], the IC50 under setting [1] was under 0.3 µM.

`COc1ccc(O[C@H]2C[C@H](Nc3nc(C)c4c(n3)N(C)[C@@H](C)C(=O)N4C)C2)c(F)c1` [Compound 355, (7S)-2-((trans-3-(2-fluoro-4-methoxyphenoxy)cyclobutyl)amino)-4,5,7,8-tetramethyl-7,8-dihydropteridin-6(5H)-one]: under setting [1], the IC50 is 1 to 5 µM. Turning to `Cc1cc(Cn2cc(CNc3nc(C)c4c(n3)N(C)[C@@H](C)C(=O)N4)cn2)ccn1` [Compound 178, (7S)-4,7,8-trimethyl-2-(((1-((2-methylpyridin-4-yl)methyl)-1H-pyrazol-4-yl)methyl)amino)-7,8-dihydropteridin-6(5H)-one], the half-inhibitory concentration (IC50) under setting [1] lay within 1 to 5 µM.

On to `Cc1nc(N[C@H]2C[C@H](Oc3ccc(C(F)(F)F)nc3)C2)nc2c1NC(=O)C1(CCOC1)N2C` (relative stereo) [Compound 689, 4′,8′-dimethyl-2′-((trans-3-((6-(trifluoromethyl)pyridin-3-yl)oxy)cyclobutyl)amino)-4,5,5′,8′-tetrahydro-2H,6′H-spiro[furan-3,7′-pteridin]-6′-one], for which, under setting [1], the IC50 fell in the range of 0.3 to 1 µM.

On to `CCN1C(=O)[C@@H](C)N(C(C)C)c2nc(NCc3cnn(Cc4cc(F)c(F)c(F)c4)c3)ncc21` [Compound I-1463], for which the IC50 (Homo sapiens, COLO 205, 5 h, R-isomer at C2 (corresponding to C2 S-isomer), 5 h) is under 0.3 µM. Regarding `CN1C(=O)C2(COC2)N(C)c2nc(NCc3cnn(Cc4ccc(F)cc4)c3)ncc21` [Compound 228, 2′-(((1-(4-fluorobenzyl)-1H-pyrazol-4-yl)methyl)amino)-5′,8′-dimethyl-5′,8′-dihydro-6′H-spiro[oxetane-3,7′-pteridin]-6′-one], the IC50 under setting [1] fell in the range of 1 to 5 µM.
